Results as given in a compilation of properties of binary mixtures (doi:10.1007/s10953-020-00967-3).

Test: xn = mol fraction of the nth substance listed
Details: 101 kPa

CN(C)C=O + CCCC[n+]1ccn(C)c1.F[B-](F)(F)F
x2 = 0
Details	viscosity [mPa·s]
293.15 K	0.88
298.15 K	0.83
303.15 K	0.78
308.15 K	0.74
313.15 K	0.7
318.15 K	0.67
323.15 K	0.63

CCCC[n+]1ccn(C)c1.F[B-](F)(F)F + CN(C)C=O
viscosity [mPa·s]
Details	293.15 K	298.15 K	303.15 K	308.15 K	313.15 K	318.15 K	323.15 K
x1 = 0.08	–	2.56	2.3	2.27	1.95	–	–
x1 = 0.16	5.71	3.95	3.21	3.29	–	1.84	1.63
x1 = 0.24	9	5.82	4.17	3.9	2.61	1.59	1.88
x1 = 0.34	13.7	8.9	6.22	4.65	2.49	0.55	1.38
x1 = 0.43	18.4	12.1	8	–	2.98	–	0.75
x1 = 0.55	26.7	17.7	12.7	9.6	5.74	–	0.5
x1 = 0.65	38.3	27.6	20.7	16	10.4	5.23	2.3
x1 = 0.74	55.2	–	33.6	26.2	–	–	–
x1 = 0.83	77	–	51.9	42.4	32.6	23.6	15.9
x1 = 0.94	105	–	–	61.9	49.3	37.5	–
x1 = 1	125	105	88	72	57.7	44	31.6
